PubChem BioAssay AID248 (DTP/NCI, 2004)
Where “and” joins values, the source holds several entries; their conditions need not be identical. Equal values may be shown once. Inconclusive results and toxic doses are left out. No stated cut-off is given here; in the data, active means T/C of 150% or more; inactive means T/C below 125%.

Test system: L1210 leukemia ip in BDF1 mice, survival T/C
Test: NCI In Vivo Anticancer Drug Screen. Data for tumor model L1210 Leukemia (intraperitoneal) in B6D2F1 (BDF1) mice
Details: endpoint: mean survival time, higher = longer survival
Method in brief: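 In this screen, tumor-bearing mice given compound are compared to those given vehicle, and their survival values are reported as a treated-to-control quotient.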

[1] = dose: 100.0 mg/kg/injection, schedule: Q01DX009 (ip), vehicle: Klucel (hydroxypropylcellulose) (HPC)
[2] = dose: 100.0 mg/kg/injection, schedule: Q04DX003 (ip), vehicle: Klucel (hydroxypropylcellulose) (HPC)
[3] = dose: 200.0 mg/kg/injection, schedule: Q04DX003 (ip), vehicle: Klucel (hydroxypropylcellulose) (HPC)
[4] = dose: 400.0 mg/kg/injection, schedule: Q04DX003 (ip), vehicle: Klucel (hydroxypropylcellulose) (HPC)
[5] = dose: 50.0 mg/kg/injection, schedule: Q01DX009 (ip), vehicle: saline with Tween-80
[6] = dose: 100.0 mg/kg/injection, schedule: Q01DX009 (ip), vehicle: saline with Tween-80
[7] = dose: 100.0 mg/kg/injection, schedule: Q04DX003 (ip), vehicle: saline with Tween-80
[8] = dose: 200.0 mg/kg/injection, schedule: Q01DX009 (ip), vehicle: saline with Tween-80
[9] = dose: 200.0 mg/kg/injection, schedule: Q04DX003 (ip), vehicle: saline with Tween-80
[10] = dose: 400.0 mg/kg/injection, schedule: Q01DX009 (ip), vehicle: saline with Tween-80
[11] = dose: 400.0 mg/kg/injection, schedule: Q04DX003 (ip), vehicle: saline with Tween-80
[12] = dose: 100.0 mg/kg/injection, schedule: Q04DX003 (ip), vehicle: saline
[13] = dose: 200.0 mg/kg/injection, schedule: Q04DX003 (ip), vehicle: saline
[14] = dose: 400.0 mg/kg/injection, schedule: Q04DX003 (ip), vehicle: saline
[15] = dose: 100.0 mg/kg/injection, schedule: Q01DX009 (ip), vehicle: saline
[16] = dose: 200.0 mg/kg/injection, schedule: Q01DX009 (ip), vehicle: saline
[17] = dose: 100.0 mg/kg/injection, schedule: Q01DX001 (ip), vehicle: saline
[18] = dose: 200.0 mg/kg/injection, schedule: Q01DX001 (ip), vehicle: saline
[19] = dose: 400.0 mg/kg/injection, schedule: Q01DX001 (ip), vehicle: saline
[20] = dose: 400.0 mg/kg/injection, schedule: Q01DX009 (ip), vehicle: saline
[21] = dose: 50.0 mg/kg/injection, schedule: Q01DX001 (ip), vehicle: carboxymethylcellulose (CMC)
[22] = dose: 100.0 mg/kg/injection, schedule: Q01DX001 (ip), vehicle: carboxymethylcellulose (CMC)
[23] = dose: 200.0 mg/kg/injection, schedule: Q01DX001 (ip), vehicle: carboxymethylcellulose (CMC)
[24] = dose: 400.0 mg/kg/injection, schedule: Q01DX001 (ip), vehicle: carboxymethylcellulose (CMC)

Measured: T/C

S=P(Nc1ccc(Cl)cc1Cl)(Nc1ccc(Cl)cc1Cl)c1ccccc1
inactive: [1] 102 % of control | dose: 200.0 mg/kg/injection, schedule: Q01DX009 (ip), vehicle: Klucel (hydroxypropylcellulose) (HPC) 100 % of control | dose: 400.0 mg/kg/injection, schedule: Q01DX009 (ip), vehicle: Klucel (hydroxypropylcellulose) (HPC) 110 % of control

CC(C)(C)c1cc2c(cc1O)C(C)(C)CCC2(C)C
inactive: dose: 100.0 mg/kg/injection, schedule: Q04DX002 (ip), vehicle: Klucel (hydroxypropylcellulose) (HPC) 105 % of control | dose: 200.0 mg/kg/injection, schedule: Q04DX002 (ip), vehicle: Klucel (hydroxypropylcellulose) (HPC) 105 % of control | dose: 400.0 mg/kg/injection, schedule: Q04DX002 (ip), vehicle: Klucel (hydroxypropylcellulose) (HPC) 98 % of control

O=[N+]([O-])c1cc(C(F)(F)F)cc([N+](=O)[O-])c1NN=C1CCCCC1
inactive: dose: 100.0 mg/kg/injection, schedule: Q01DX009 (ip), vehicle: gum acacia 93 % of control | dose: 200.0 mg/kg/injection, schedule: Q01DX009 (ip), vehicle: gum acacia 91 % of control | dose: 400.0 mg/kg/injection, schedule: Q01DX009 (ip), vehicle: gum acacia 96 % of control

O=C(N/N=C\c1c(O)ccc2ccccc12)c1ccncc1
inactive: [2] 106 % of control | [3] 101 % of control | [4] 108 % of control

CS(N)(=O)=O
inactive: dose: 12.5 mg/kg/injection, schedule: Q04DX002 (ip), vehicle: saline 111 % of control | dose: 25.0 mg/kg/injection, schedule: Q04DX002 (ip), vehicle: saline 96 % of control | dose: 50.0 mg/kg/injection, schedule: Q04DX002 (ip), vehicle: saline 96 % of control

CCCCCCCCCCCCCCCCS(=O)(=O)c1ccc(S(=O)(=O)N/N=c2/sc3ccc(S(=O)(=O)O)cc3n2C)cc1C(=O)O
inactive: [5] 97 % of control | [6] 94 % of control

FC(F)(F)C(Cl)(Cc1ccc2ccccc2n1)C(F)(F)F
inactive: dose: 50.0 mg/kg/injection, schedule: Q04DX003 (ip), vehicle: saline with Tween-80 102 % of control | [6] 105 % of control | [7] 101 % of control | [8] 100 % of control | [9] 102 % of control | [10] 103 % of control | [11] 94 % of control

CCSc1cc(C(=O)O)cc([N+](=O)[O-])c1
inactive: [12] 104 % of control | [13] 93 % of control | [14] 94 % of control

CCSc1nc(C(OC)OC)c(Cc2ccccc2)c(=O)[nH]1
inactive: [2] 95 % of control | [3] 89 % of control | [4] 100 % of control

Cc1noc(C)c1CON
inactive: dose: 75.0 mg/kg/injection, schedule: Q01DX001 (ip), vehicle: saline 100 % of control and 102 % of control | dose: 150.0 mg/kg/injection, schedule: Q01DX001 (ip), vehicle: saline 105 % of control | dose: 300.0 mg/kg/injection, schedule: Q01DX001 (ip), vehicle: saline 94 % of control and 91 % of control

CC(=O)CC(C)(C)NC(=S)NN
inactive: [2] 91 % of control | [3] 101 % of control | [4] 91 % of control

N#CN1CCOCC1
inactive: dose: 44.0 mg/kg/injection, schedule: Q01DX Z (ip), vehicle: saline 101 % of control | dose: 66.0 mg/kg/injection, schedule: Q01DX Z (ip), vehicle: saline 91 % of control | [15] 97 % of control | dose: 100.0 mg/kg/injection, schedule: Q01DX Z (ip), vehicle: saline 101 % of control | [12] 95 % of control | [16] 103 % of control | [13] 105 % of control

CCCCN(CCCC)CC(O)c1cc(-c2cccc(I)c2)nc2c(Cl)cc(Cl)cc12 (stereo not given)
inactive: [7] 90 % of control | [9] 86 % of control | [11] 98 % of control

O=C(O)C1CCCC2C(O)CCC(O)C12 (stereo not given)
inactive: [17] 107 % of control | [12] 105 % of control | [18] 93 % of control | [13] 111 % of control | [19] 91 % of control | [14] 105 % of control

COc1ccc(C(=O)C(O)O)cc1
inactive: [15] 100 % of control | [12] 103 % of control | [16] 96 % of control | [13] 98 % of control | [20] 112 % of control | [14] 103 % of control

CC1(c2ccc(Cl)cc2)NC(=O)N(CN2CCCCC2)C1=O (stereo not given)
inactive: dose: 12.5 mg/kg/injection, schedule: Q01DX009 (ip), vehicle: saline sonified 102 % of control | dose: 25.0 mg/kg/injection, schedule: Q01DX009 (ip), vehicle: saline sonified 96 % of control | dose: 50.0 mg/kg/injection, schedule: Q01DX009 (ip), vehicle: saline sonified 104 % of control

CNc1ncc2nc(C)c(=O)n(C)c2n1
inactive: dose: 50.0 mg/kg/injection, schedule: Q01DX009 (ip), vehicle: Klucel (hydroxypropylcellulose) (HPC) 98 % of control | [1] 95 % of control

Cc1cc(OCC(=O)O)c(Cl)cc1Cl
inactive: [5] 92 % of control | [6] 99 % of control

C1=C/C2OC2CCCC/1 (stereo not given)
inactive: dose: 50.0 mg/kg/injection, schedule: Q01DX009 (ip), vehicle: saline 96 % of control | [15] 97 % of control | [12] 102 % of control | [16] 102 % of control | [13] 87 % of control | [14] 93 % of control

COc1ccc(C2=CCCCC2)cc1
inactive: [6] 97 % of control | [7] 105 % of control | [8] 91 % of control | [9] 110 % of control | [10] 94 % of control | [11] 103 % of control

COc1ccc(CNCCO)cc1
inactive: [15] 96 % of control | [12] 96 % of control | [16] 91 % of control | [13] 98 % of control | [20] 97 % of control | [14] 93 % of control

CC1([N+](=O)[O-])COP(=O)(NCc2cccnc2)OC1 (stereo not given)
inactive: [21] 103 % of control | [22] 95 % of control | [23] 113 % of control | [24] 95 % of control

c1ccc2c3c(ccc2c1)-c1oncc1CC3
inactive: [17] 95 % of control | [18] 103 % of control | [19] 93 % of control

CCOC(=O)C1=CC2(c3ccccc3)CC1(c1ccccc1)C(c1ccccc1)=C2c1ccccc1 (stereo not given)
inactive: [21] 97 % of control | [22] 92 % of control | [23] 94 % of control | [24] 89 % of control

CCCCCCCCCC1CCC(C(=O)O)CC1 (stereo not given)
inactive: dose: 75.0 mg/kg/injection, schedule: Q01DX009 (ip), vehicle: Klucel (hydroxypropylcellulose) (HPC) 105 % of control | dose: 150.0 mg/kg/injection, schedule: Q01DX009 (ip), vehicle: Klucel (hydroxypropylcellulose) (HPC) 96 % of control | dose: 300.0 mg/kg/injection, schedule: Q01DX009 (ip), vehicle: Klucel (hydroxypropylcellulose) (HPC) 98 % of control

CCCCCCCCCCCCCCCOc1ccc(C)cc1
inactive: [2] 93 % of control | [3] 101 % of control | [4] 95 % of control
